Target: T1, PI3Kγ (Homo sapiens, UniProt P48736)
T1 construct: HA; made in house; host or cells: Spodoptera frugiperda (Sf9) cells, baculovirus co-infection
Assay: PI3Kγ In Vitro Kinase Assay
Type: biochemical
Conditions: purified recombinant p101/p110 γ protein with G protein β1/γ2 subunits; 20 μM ATP, 25 μM PIP2; 20 minutes at room temperature; radioactive PIP3 readout
Description: Spodtera frugiperda cells, grown in ESF921 media, were coinfected with baculovirus expressing a glu-tagged p101 and baculovirus expressing an HA-tagged p110γ, at a 3:1 ratio of p101 baculovirus to p110γ baculovirus. Sf9 cells were grown to 1×10^7 total cells/mL in 10 L bioreactors and harvested 48-72 hours post infection. Samples of infected cells were then tested for expression of p101/p110 γ PI3 kinase by immunoprecipitation and Western Blot analysis methods (see below). To purify PI3Kγ, 4 volumes of room temperature hypotonic lysis buffer (1 mM MgCl2, 1 mM DTT, 5 mM EGTA, 1 mM Pefabloc, 0.5 μM aprotinin, 5 μM leupeptin, 2 μM pepstatin, 5 μM E64, pH 8) per gram of cell paste, was poured onto frozen cell pellets with stirring, then lysed in a nitrogen “bomb” at 400 psi (599HC […], Parr Instrument Co, Moline, Ill.). NaCl was added to 150 mM, and sodium cholate was added to 1% and mixed for another 45 minutes. The lysates were clarified by centrifugation for 25 minutes at 14,000 rpm. The lysates were then loaded over anti-glu-linked Protein-G Sepaharose beads (Covance Research Products, Richmond, Calif.) using 20 mL resin/50 g cell paste. The column was washed with 15 volumes of wash buffer (1 mM DTT, 0.2 mM EGTA, 1 mM Pefabloc, 0.5 μM aprotinin, 5 μM leupeptin, 2 μM pepstatin, 5 μM E64, 150 mM NaCl, 1% sodium cholate, pH 8). PI3Kγ was eluted with 6 column volumes of wash buffer that contain 100 μg/mL of a peptide that competes for binding of the glu tag. The column fractions with the eluted protein (determined by taking OD280 readings) were collected and dialyzed in 0.2 mM EGTA, 1 mM DTT, 1 mM Pefabloc, 5 μM leupeptin, 0.5% sodium cholate, 150 mM NaCl, and 50% glycerol, pH 8. The fractions were stored at -80° C. until further use. Spodtera frugiperda cells were coinfected with baculovirus expressing a glu-tagged G protein β1 and baculovirus expressing a G protein β2, at a 1:1 ratio of glu-tagged G protein β1 baculovirus to G protein β2 baculovirus. Sf9 cells are grown in 10 L bioreactors and harvested 48-72 hours post infection. Samples of infected cells were tested for G protein β1/β2 expression by Western Blot analysis, as described below. Cell lysates were homogenized and loaded onto a column of glu-tagged beads as in Biological Example 1 and competed off the column with a glu peptide and processed as described in Biological Example 1. The inhibitory properties of the compounds in Table 1 were assayed in an in vitro PI3K assay. In a 96-well polypropylene plate, each well was spotted with 2 μL of 50 times the desired final concentration of compound in DMSO. Purified recombinant p101/p110 γ protein (0.03 μg; 2.7 nM) and G protein β1/γ2 subunits (0.09 μg; 57.7 nM) for each reaction was combined in the assay buffer (30 mM HEPES, 100 mM NaCl, 1 mM EGTA, and 1 mM DTT). ATP and [γ-^32P-ATP] (0.09 μCi) were added to this mixture so that the final ATP concentration in the reaction was 20 μM. Lipid micelles were formed by sonicating phosphatidylinositol-4,5-diphosphate (PIP2), phosphatidylethanolamine (PE), and Na-cholate in the assay buffer for 10 minutes, adding MgCl2 and incubating on ice for 20 minutes, for final concentrations of 25 μM PIP2, 300 μM PE, 0.02% Na-cholate, and 10 mM MgCl2 in the reaction. The reactions were started by adding equal volumes lipid and enzyme mixture in a total volume of 50 μL, allowed to run for 20 minutes at room temperature, and stopped with 100 μL 75 mM H3PO4. The lipid product was transferred to a glass fiber filter plate and washed with 75 mM H3PO4 several times. The presence of radioactive lipid product (PIP3) was measured by adding Wallac Optiphase mix to each well and counting in a Wallac 1450 Trilux plate reader (PerkinElmer Life Sciences Inc., Boston, Mass. 02118). The IC50 for each compound tested is reported in μM in Table 1: […]

T1 sequence (P48736 whole entry, species assumed): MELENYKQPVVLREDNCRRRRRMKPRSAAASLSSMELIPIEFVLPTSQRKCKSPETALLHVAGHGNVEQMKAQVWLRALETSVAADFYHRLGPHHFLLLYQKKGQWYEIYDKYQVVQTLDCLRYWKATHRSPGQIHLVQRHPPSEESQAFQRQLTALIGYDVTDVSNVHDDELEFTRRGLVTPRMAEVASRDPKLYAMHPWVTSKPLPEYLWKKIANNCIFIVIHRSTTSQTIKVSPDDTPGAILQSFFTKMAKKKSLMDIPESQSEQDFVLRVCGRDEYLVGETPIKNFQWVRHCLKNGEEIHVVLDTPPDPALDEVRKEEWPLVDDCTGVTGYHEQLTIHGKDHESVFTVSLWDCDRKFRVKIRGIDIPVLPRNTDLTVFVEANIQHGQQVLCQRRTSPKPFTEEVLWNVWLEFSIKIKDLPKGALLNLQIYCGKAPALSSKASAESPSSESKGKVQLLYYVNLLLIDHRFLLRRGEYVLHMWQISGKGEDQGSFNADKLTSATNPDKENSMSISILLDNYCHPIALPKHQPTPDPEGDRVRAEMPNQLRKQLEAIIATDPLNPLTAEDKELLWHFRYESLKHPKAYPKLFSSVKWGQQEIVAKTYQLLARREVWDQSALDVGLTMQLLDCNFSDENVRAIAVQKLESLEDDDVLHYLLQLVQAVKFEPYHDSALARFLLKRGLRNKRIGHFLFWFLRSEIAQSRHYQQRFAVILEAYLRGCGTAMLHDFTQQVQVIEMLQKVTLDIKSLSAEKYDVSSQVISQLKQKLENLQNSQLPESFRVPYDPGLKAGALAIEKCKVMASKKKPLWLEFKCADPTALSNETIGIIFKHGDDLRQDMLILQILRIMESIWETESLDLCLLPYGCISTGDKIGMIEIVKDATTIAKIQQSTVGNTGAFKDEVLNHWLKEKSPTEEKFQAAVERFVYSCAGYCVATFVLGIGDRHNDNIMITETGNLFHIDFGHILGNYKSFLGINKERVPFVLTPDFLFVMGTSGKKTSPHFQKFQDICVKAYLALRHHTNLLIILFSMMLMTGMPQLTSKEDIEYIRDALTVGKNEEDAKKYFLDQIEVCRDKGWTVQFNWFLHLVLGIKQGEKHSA
T1 sequence (Q8WYR1 whole entry partner, species assumed): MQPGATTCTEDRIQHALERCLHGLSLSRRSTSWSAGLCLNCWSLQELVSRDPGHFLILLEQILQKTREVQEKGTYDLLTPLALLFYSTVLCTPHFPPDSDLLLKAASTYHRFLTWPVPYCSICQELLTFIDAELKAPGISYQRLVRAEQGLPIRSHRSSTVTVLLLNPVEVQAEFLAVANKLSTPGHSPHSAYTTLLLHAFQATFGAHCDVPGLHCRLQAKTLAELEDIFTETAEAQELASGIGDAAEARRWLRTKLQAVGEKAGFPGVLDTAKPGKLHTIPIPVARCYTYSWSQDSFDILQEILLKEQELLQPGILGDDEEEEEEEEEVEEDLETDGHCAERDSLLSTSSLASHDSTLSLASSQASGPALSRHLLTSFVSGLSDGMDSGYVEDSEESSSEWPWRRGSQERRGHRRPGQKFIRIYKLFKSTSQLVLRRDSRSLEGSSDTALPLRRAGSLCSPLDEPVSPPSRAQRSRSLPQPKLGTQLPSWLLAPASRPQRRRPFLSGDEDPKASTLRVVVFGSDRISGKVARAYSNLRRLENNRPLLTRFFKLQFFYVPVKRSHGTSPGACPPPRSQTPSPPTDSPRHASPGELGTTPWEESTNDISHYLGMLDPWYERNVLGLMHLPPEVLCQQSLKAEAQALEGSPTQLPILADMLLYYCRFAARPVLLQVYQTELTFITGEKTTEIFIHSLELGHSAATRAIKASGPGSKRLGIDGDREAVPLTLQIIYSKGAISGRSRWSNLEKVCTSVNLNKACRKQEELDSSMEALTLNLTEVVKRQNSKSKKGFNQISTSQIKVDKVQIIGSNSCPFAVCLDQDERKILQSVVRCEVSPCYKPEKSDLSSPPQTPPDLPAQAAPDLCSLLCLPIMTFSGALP

IC50 [nM]	Structure (SMILES)
101	COc1cc2sc(C(=O)Nc3nnn[nH]3)c(OC3CCCCC3C)c2cc1OC (stereo not drawn) [Example 26, 5,6-Dimethoxy-3-(2-methyl-cyclohexyloxy)-benzo[b]thiophene-2-carboxylic acid (1H-tetrazol-5-yl)-amide]
575	COc1cc2sc(C(=O)Nc3nnn[nH]3)c(OC3CCOC3)c2cc1OC (stereo not drawn) [Example 27, 5,6-Dimethoxy-3-(tetrahydro-furan-3-yloxy)-benzo[b]thiophene-2-carboxylic acid (1H-tetrazol-5-yl)-amide]
245	CCC1(COc2c(C(=O)Nc3nnn[nH]3)sc3cc(OC)c(OC)cc23)COC1 [Example 28, 3-(3-Ethyl-oxetan-3-ylmethoxy)-5,6dimethoxy-benzo[b]thiophene-2-carboxylic acid (1H-tetrazol-5-yl)-amide]
14	COc1cc2sc(C(=O)Nc3nnn[nH]3)c(OCC3C4CCC(C4)C3C)c2cc1OC (stereo not drawn) [Example 29, 5,6 Dimethoxy-3-(3-methyl-bicyclo[2.2.1]hept-2-ylmethoxy)-benzo[b]thiophene-2-carboxylic acid (1H-tetrazol-5-yl)-amide]
110	COc1cc2sc(C(=O)Nc3nnn[nH]3)c(OC3CCC(C4CCCCC4)CC3)c2cc1OC (stereo not drawn) [Example 30, 3-(Bicyclohexyl-4-yloxy)-5,6-dimethoxy-benzo[b]thiophene-2-carboxylic acid (1H-tetrazol-5-yl)-amide]
63	COc1cc2sc(C(=O)Nc3nnn[nH]3)c(OC3CCC(C)C3)c2cc1OC (stereo not drawn) [Example 31, 5,6-Dimethoxy-3-(3-methyl-cyclopentyloxy)-benzo[b]thiophene-2-carboxylic acid (1H-tetrazol-5-yl)-amide]
101	COc1cc2sc(C(=O)Nc3nnn[nH]3)c(OCC3CC=CCC3)c2cc1OC (stereo not drawn) [Example 32, 3-(Cyclohex-3-enylmethoxy)-5,6-dimethoxy-benzo[b]thiophene-2-carboxylic acid (1H-tetrazol-5-yl)-amide]
48	COc1cc2sc(C(=O)Nc3nnn[nH]3)c(OC3CCCCCCC3)c2cc1OC [Example 33, 3-Cyclooctyloxy-5,6-dimethoxy-benzo[b]thiophene-2-carboxylic acid (1H-tetrazol-5-yl)-amide]
350	COc1cc2sc(C(=O)Nc3nnn[nH]3)c(OCC3CC3)c2cc1OC [Example 35, 3-Cyclopropylmethoxy-5,6-dimethoxy-benzo[b]thiophene-2-carboxylic acid (1H-tetrazol-5-yl)-amide]
23	COc1cc2sc(C(=O)Nc3nnn[nH]3)c(OCCCC3CCCCC3)c2cc1OC [Example 36, 3-(3-Cyclohexyl-propoxy)-5,6-dimethoxy-benzo[b]thiophene-2-carboxylic acid (1H-tetrazol-5-yl)-amide]
51	COc1cc2sc(C(=O)Nc3nnn[nH]3)c(OCC3(C)CC3)c2cc1OC [Example 37, 5,6-Dimethoxy-3-(1-methyl-cyclopropylmethoxy)-benzo[b]thiophene-2-carboxylic acid (1H-tetrazol-5-yl)-amide]
72	COc1cc2sc(C(=O)Nc3nnn[nH]3)c(OCC3CCC3)c2cc1OC [Example 38, 3-Cyclobutylmethoxy-5,6-dimethoxy-benzo[b]thiophene-2-carboxylic acid (1H-tetrazol-5-yl)-amide]
37	COc1cc2sc(C(=O)Nc3nnn[nH]3)c(OC3CCCCCC3)c2cc1OC [Example 39, 3-Cycloheptyloxy-5,6-dimethoxy-benzo[b]thiophene-2-carboxylic acid (1H-tetrazol-5-yl)-amide]
83	COc1cc2sc(C(=O)Nc3nnn[nH]3)c(OC3CCOCC3)c2cc1OC [Example 41, 5,6-Dimethoxy-3-(tetrahydro-pyran-4-yloxy)-benzo[b]thiophene-2-carboxylic acid (1H-tetrazol-5-yl)-amide]
101	COc1cc2sc(C(=O)Nc3nnn[nH]3)c(OCC3CCCC3)c2cc1OC [Example 43, 3-Cyclopentylmethoxy-5,6-dimethoxy-benzo[b]thiophene-2-carboxylic acid (1H-tetrazol-5-yl)-amide]
160	CCC(Oc1c(C(=O)Nc2nnn[nH]2)sc2cc(OC)c(OC)cc12)C1CCCCC1 (stereo not drawn) [Example 44, 3-(1-Cyclohexyl-propoxy)-5,6-dimethoxy-benzo[b]thiophene-2-carboxylic acid (1H-tetrazol-5-yl)-amide]
52	COc1cc2sc(C(=O)Nc3nnn[nH]3)c(OC3CCC(C)C(C)C3)c2cc1OC (stereo not drawn) [Example 45, 3-(3,4-Dimethyl-cyclohexyloxy)-5,6-dimethoxy-benzo[b]thiophene-2-carboxylic acid (1H-tetrazol-5-yl)-amide]
30	COc1cc2sc(C(=O)Nc3nnn[nH]3)c(OC3CC(C)CC(C)C3)c2cc1OC (stereo not drawn) [Example 46, 3-(3,5-Dimethyl-cyclohexyloxy)-5,6-dimethoxy-benzo[b]thiophene-2-carboxylic acid (1H-tetrazol-5-yl)-amide]
112	COc1cc2sc(C(=O)Nc3nnn[nH]3)c(OC3CCC4CCCCC4C3)c2cc1OC (stereo not drawn) [Example 47, 3-(Decahydro-naphthalen-2-yloxy)-5,6-dimethoxy-benzo[b]thiophene-2-carboxylic acid (1H-tetrazol-5-yl)-amide]
170	COc1cc2sc(C(=O)Nc3nnn[nH]3)c(OC3CC(C)CC(C)(C)C3)c2cc1OC (stereo not drawn) [Example 48, 5,6-Dimethoxy-3-(3,3,5-trimethyl-cyclohexyloxy)-benzo[b]thiophene-2-carboxylic acid (1H-tetrazol-5-yl)-amide]
2550	COc1cc2sc(C(=O)Nc3nnn[nH]3)c(OC3CCN(Cc4ccccc4)CC3)c2cc1OC [Example 49, 3-(1-Benzyl-piperidin-4-yloxy)-5,6-dimethoxy-benzo[b]thiophene-2-carboxylic acid (1H-tetrazol-5-yl)-amide]
120	COc1cc2sc(C(=O)Nc3nnn[nH]3)c(OC3CCCC3)c2cc1OC [Example 50, 3-Cyclopentyloxy-5,6-dimethoxy-benzo[b]thiophene-2-carboxylic acid (1H-tetrazol-5-yl)-amide]
20	COc1cc2sc(C(=O)Nc3nn[nH]n3)c(OC3CCCCC3)c2cc1C [Example 51, 3-Cyclohexyloxy-6-methoxy-5-methyl-benzo[b]thiophene-2-carboxylic acid (2H-tetrazol-5-yl)-amide]

Structure (SMILES)	IC50 [nM]
COc1cc2sc(C(=O)Nc3nnn[nH]3)c(OC3CCC3)c2cc1OC [Example 40, 3-Cyclobutoxy-5,6-dimethoxy-benzo[b]thiophene-2-carboxylic acid (1H-tetrazol-5-yl)-amide]	92

From patent US20050020630A1, “Cycloalkyl and heterocycloalkyl substituted benzothiophenes as therapeutic agents” (priority 2003, published 2005)
